# Entries after “also recorded” stand apart in the source; their conditions may differ. Where two headings read alike, the source gives them in different places.
# Key:
# [1] = system: Human polymorphonuclear leukocytes (PMNs); test: LTB4 release by polymorphonuclear leukocytes (Experiment 10); type: cell-based; details: normal human PMNs
# Description: Human polymorphonuclear leukocytes (PMNs) were used to study LTB4 release, which is known to be involved in inflammation.
# [2] = system: ear swelling in response to PMA; test: Ear swelling in response to PMA (Experiment 21); details: in vivo
# [3] = system: ear swelling produced by topical application of arachidonic acid; test: Ear swelling produced by topical arachidonic acid (Experiment 22); type: in vivo, mice
# white cells = details: in vivo
# Mouse peritoneal cells = test: 3H-thymidine incorporation in peritoneal cells, with or without LPS (Experiment 15); type: cell-based; details: concentrations as high as 10^-6 M/L; control cells or cells stimulated using LPS
# [4] = system: primary response to sheep red blood cells (SRBC); test: Direct plaque forming cell (PFC) assay, primary response to sheep red blood cells (Experiment 6); type: in vivo, C57BL/6J mice
# Description: A control group received only the buffer vehicle (carbonate buffer, 0.01M, pH 9.5). Six hours after the first dose, the mice received 0.1 ml of a 20% SRBC solution intraperitoneally. The mice were sacrificed four days later. The spleens were harvested, and the spleen cells were tested in a modified Cunningham plaque assay. Cunningham, A. V., Nature (London) 207:1106 1965.
# Mouse P338D cells = test: Release of 3H-arachidonic acid metabolites, A23187-stimulated cells (Experiment 9); type: cell-based; details: 10^-6 M/L sorbinil; stimulated by A23187
# Description: The assay protocol was as described generally in Henderson, W. R., and S. J. Klebanoff, J. Biol. Chem. 258: 13522-13527, 1983, which is hereby incorporated by reference.
# Human monocytes = test: Monocyte adherence in vitro (Experiment 16); type: cell-based; details: concentrations as high as 10^-6 M/L
# Description: Human monocytes were isolated and tested for adherence in vitro in the presence and absence of sorbinil.
# [5] = system: spleen cells from irradiated C57B6 mice with thymocytes from Balb C mice; test: Mixed lymphocyte response (Experiment 19); type: cell-based; details: concentrations as high as 10^-5 M/L
# [6] = system: delayed type hypersensitivity (DTH) response to DNFB; test: Delayed-type hypersensitivity (DTH) ear swelling, DNFB-primed mice (Experiments 2-3); type: in vivo, C57BL/6J mice
# Description: Delayed type hypersensitivity, which involves the participation of T lymphocytes and macrophages, can be studied in vivo by exposing (or priming) a mammal to a novel antigen and then reexposing (or challenging) the primed animal to the same antigen four to seven days later. The classic DTH response includes symptoms of inflammatory response, induration and erythema, which peak at 24 to 48 hours after challenging and then decline slowly.
# Eight-week old female C57BL/6J mice (Jackson Labs) were divided into primed and unprimed groups. The five mice in the primed group were primed to 2,4-dinitrofluorobenzene (DNFB; Sigma Chemical Co., Grade 1, approx. 98%, Lot 129C-0065, No. d-6879) by painting their shaved ventral skins with 0.1 ml of 0.5% DNFB in ethanol:acetone (3:1). The five mice in the unprimed group were shaved and topically painted on their ventral skins with the ethanol:acetone (3:1) vehicle alone. The mice in both groups were challenged with DNFB four days later. A suitable patch of skin, the ear, was chosen for challenging. One ear was designated for challenging and the other to serve as a control. The thickness of each ear across the pinna was measured using micrometer calipers. The first measurements were taken four days after priming and are plotted as day 0 in FIG. 13. Next, each mouse was subjected to the following challenge regimen: one ear was challenged with one drop of 0.35% DNFB in olive oil, and the other (unchallenged control) ear was exposed to olive oil alone. The ear thicknesses (ET) of the challenged ear and the unchallenged ear were measured daily, and the swelling responses are plotted in FIG. 13 as: [formula]
# Three groups of eight-week old female C57BL/6J mice were primed to DNFB as previously described. […] Six hours later the first sets of ear measurements were taken, and one ear of each mouse was challenged.
# The data in FIG. 15 is derived from three experiments using C57BL/6J mice. The measurements were taken at the time of maximal swelling, i.e., […] after challenge, and each point represents at least 9 mice.
# [7] = system: anti-PHI.X 174 bacteriophage antibodies; test: Phage inhibition assay of serum antibody after immunization with bacteriophage PHI.X 174 (Experiment 7); type: in vivo, mice; details: sorbinil daily for five days
# Description: Antibodies generated against the bacteriophage were quantitated by a phage inhibition assay, which is based on the observation that antibodies specific for the bacteriophage will inhibit the ability of the bacteriophage to lyse bacteria. Ochs, H. D., et al., Disorders of the B-cell system, in Immunologic Disorders in Infants and Children, E. R. Stiehm, et al., eds., W. B. Sanders, Co. Philadelphia, p. 239, 1980. The data was expressed as Kv values derived according to the following formula: Rate of phage inactivation, Kv D/T×1n Po/P, where D=reciprocal of antibody dilution, T=60 minutes, Po=initial number of PFU, and P=number of plaques at 60 minutes.
# Beginning with one week after this primary immunization mice were bled weekly, and serum samples from individual mice were tested for the ability to inhibit bacteriophage lysis of bacteria.
# [8] = system: spleen cells stimulated with Concanavalin A (Con A); test: Spleen cell proliferative response to Con A after oral sorbinil (Experiment 8); type: in vivo, mice; details: for activation at 11 mg/kg/day: Mus musculus, read-out: Enhancement of proliferative response
# Description: The proliferative response of T lymphocytes to the Con A mitogen requires the obligatory participation of adherent accessory cells, which are presumed to be macrophages.
# Mice received sorbinil orally for one, two, or three days prior to sacrifice. The dosage was 11 mg/kg per day. Control mice received the buffer vehicle alone. Mice from these four groups were sacrificed and their spleens harvested. The spleens were teased into single-cell suspensions that were cultured with different concentrations of Con A for three or four days. One microcurie of tritiated thymidine was added to each culture 18 hours before the cultures were terminated. Incorporation of the tritiated thymidine into cellular DNA was measured by using a liquid scintillation counter. The results of this experiment are presented in FIGS. 20 and 21 and are summarized as follows: […]
# [9] = 11 mg/kg orally daily, four days after SRBC
structure (smiles),measurement,setting,value
"O=C1NC(=O)[C@@]2(CCOc3ccc(F)cc32)N1 [Sorbinil, 4(S)-2,3-dihydro-6-fluorospiro-(4H-1-benzopyran-4,4'-imidazolidine)-2',5'-dione]",Production of LTB4,[1],no effect
same,Swelling of mouse ears in response to PMA,[2],no effect
same,Ear swelling produced by topical arachidonic acid,[3]; oral administration,no effect
same,Ear swelling produced by topical arachidonic acid,[3]; topical administration,no effect
same,White cell population (differential blood count),white cells,did not affect the population of white cells
same,3H-thymidine incorporation,Mouse peritoneal cells,no significant effect
same,Direct plaques,[4]; [9],372±62 plaques per 2×10^5 cells
same,Increase in spleen cellularity compared to buffer-treated control group,[4]; [9],46%
same,Increase in the number of direct plaques (IgM antibody secreting cells) compared to buffer control,[4]; [9],94%
same,PFC on a per spleen basis,[4]; [9],"393,000±12,617 PFC/spleen"
same,Spleen cellularity,[4]; [9],2.12±0.26×10^8 cells/spleen
same,Qualitative appearance of plaques,[4]; spleen cells from sorbinil-treated mice vs buffer control,"much smaller, more irregularly shaped, and less distinct"
same,Release of arachidonic acid metabolites,Mouse P338D cells,no effect
same,Adherence of monocytes,Human monocytes,no effect
same,Mixed lymphocyte response,[5],no effect
same,ED100,"[6]; Mus musculus, extrapolation from least squares fit line, FIG. 15, three experiments, time of maximal swelling, i.e., 2 hours after challenge, read-out: Concentration at which maximum inhibition of DTH response (no swelling) would occur",13.5 mg/kg
same,Ear swelling (in words),[6]; sorbinil 10 mg/kg orally,almost complete inhibition of ear swelling
same,Ear swelling / DTH response (in words),"[6]; sorbinil orally 10, 1.0 or 0.1 mg/kg daily, DNFB-primed and challenged C57BL/6J mice",Swelling was inhibited; also recorded: dose dependent inhibition of ear swelling; also recorded: inhibits the inflammatory response; also recorded: dose dependent inhibition of the delayed-type hypersensitivity response
same,"Kv, rate of phage inactivation (serum titer of anti-PHI.X 174 antibodies)",[7]; one week after priming,5.0±2.4
same,"Kv, rate of phage inactivation (serum titer of anti-PHI.X 174 antibodies)",[7]; two weeks after primary immunization,18.4±11.4
same,activation at 11 mg/kg/day,[8]; 72 h,9%
same,activation at 11 mg/kg/day,[8]; 96 h,3 to 30%
same,Reduction of proliferative response,"[8]; cultures harvested day four, sorbinil three days prior to harvest",25-58%
same,Reduction of proliferative response,"[8]; cultures harvested day four, sorbinil two days prior to sacrifice",5 to 18%
same,Reduction of proliferative response,"[8]; cultures harvested day three, sorbinil one day prior to sacrifice, 1 μmg of Con A/ml",25%
same,Reduction of proliferative response,"[8]; cultures harvested day three, sorbinil one day prior to sacrifice, Con A 2 μmg/ml",18%
same,Reduction of proliferative response,"[8]; cultures harvested day three, sorbinil three days prior to sacrifice, Con A 2 μmg/ml",30%
same,Reduction of proliferative response,"[8]; cultures harvested day three, sorbinil three days prior to sacrifice, Con A 5 μmg/ml",27%
same,Reduction of proliferative response,"[8]; cultures harvested day three, sorbinil two days prior to sacrifice, 1 μmg of Con A/ml",22%
same,Reduction of proliferative response,"[8]; cultures harvested day three, sorbinil two days prior to sacrifice, Con A 2 μmg/ml",11%
same,Proliferative response to the mitogen Con A (in words),[8]; sorbinil 11 mg/kg per day orally prior to sacrifice,reduced proliferative response; also recorded: inhibits the proliferative response of T-cells
same,Kinetics of the proliferative response of spleen cells to Con A,"[8]; sorbinil one, two, or three days prior to spleen cell harvesting",not affected
same,Dose response pattern to Con A,[8]; sorbinil-treated vs buffer-treated mice,similar

# — patent US5340829A, “Immunoregulatory agents” (priority 1992, dated 1994)
